# Laboratory results published in publication PMC3551932, “STK295900, a Dual Inhibitor of Topoisomerase 1 and 2, Induces G2 Arrest in the Absence of DNA Damage” (PLoS ONE, 2013).
# What was measured:
# HeLa cells = experiment: Antagonistic effect on Top poison-induced DNA damage (γ-H2A.X immunoblot); assay type: cell-based, human
# Protocol: Cells were lysed with cold RIPA buffer (50 mM Tris-HCl pH 8.0, 150 mM NaCl, 1% NP-40, 0.5% sodium deoxycholate, 0.1% SDS) containing freshly added protease inhibitor, phosphatase inhibitor (SIGMA), 1 mM DTT, and 1 mM Na3VO4 on ice for 1 h. Whole cell lysates were centrifuged at 15,000 rpm for 20 min and then the supernatant was transferred into a new tube. An appropriate amount of cell lysate was subjected to SDS-PAGE. Then the resolved proteins were transferred onto a PVDF membrane (Bio-Rad) for immunoblot analyses with specific antibodies. The proteins were detected using chemiluminescence solution (Thermo Scientific, Rockford, IL).
# Supercoiled DNA relaxation assay for (A) topoisomerase 1 (Top 1) and (B) topoisomerase 2 (Top 2). Supercoiled pBR322 plasmid DNA was incubated at 37°C for 30 min with Top 1 enzyme (A) or Top 2α (B) in the presence of various concentrations of indicated compounds. DNA samples were separated by electrophoresis on a 1% agarose gel, stained with ethidium bromide, and visualized by UV light. (−), supercoiled DNA alone; oc, open circular; sc, supercoiled. […] HeLa cells were pretreated with 10 µM of STK295900 for 30 min and then incubated with the indicated concentrations of camptothecin for 1 h. Treated cells were lysed and subjected to immunoblot analyses with antibody against γ-H2A.X. β-actin was used as a loading control. […] HeLa cells were pretreated with STK295900 at 10, 20, 30, or 50 µM or ICRF-193 at 10 µM for 30 min. […] Treated cells were then lysed and subjected to immunoblot analyses with antibody against γ-H2A.X. β-actin was used as a loading control.
# The lysates were subjected to immunoblot analyses with γ-H2A.X antibody.
# MRC5CV1 cells = experiment: Cell growth inhibition assay, MRC5CV1; assay type: cell-based, human; conditions: Homo sapiens, 96 h; Table 2 comparison; MRC5CV1, non-cancer; growth up to 4 days
# Description: Human epitheloid cervical carcinoma HeLa cells, human breast adenocarcinoma MCF7 and MDA-MB-231cells, human hepatocellular carcinoma HepG2 cells, human colon adenocarcinoma HT-29 cells, and human colorectal carcinoma HCT-116 cells were purchased from ATCC® and maintained in DMEM medium. Human prostate carcinoma PC-3 cells (purchased from ATCC®), human gastric carcinoma SNU-484 and SNU-601(obtained from Korean Cell Line Bank (KCLB)), human leukemia K-562 and HL-60 cells (purchased from ATCC®), immortalized human prostate epithelial 267B1cells, and immortalized human embryonic lung fibroblast MRC5CV1 cells were maintained in RPMI 1640 medium whereas immortalized retinal pigment epithelial hTERT RPE-1 cells (purchased from ATCC®) were maintained in DMEM/F12 medium. All cell lines were cultured in media supplemented with 10% fetal bovine serum, 100 U/ml penicillin, and […] streptomycin at 37°C in a 5% CO2 incubator.
# Cells were seeded at the appropriate amount (1–2×10^3 cells) in triplicate in 96-well plates for 24 h and then treated with various concentrations of STK295900. Cell growth was determined by using EZ-CyTox cell viability assay kit (Daeil Lab. Service, Seoul, Korea). Ten microliters of WST solution were added to the treated cells at 24, 48, 72, and 96 h. Cells were further incubated at 37°C for 2 h and the absorbance was measured at 450 nm.
smiles,measurement,setting,value
"Nc1ccc(-c2nc3ccc(-c4ccc5nc(-c6ccc(N)cc6)[nH]c5c4)cc3[nH]2)cc1 [STK295900, 4,4′-(3H,3′H-5,5′-bibenzimidazole-2,2′-diyl)dianiline]",effect of pretreatment on etoposide-induced γ-H2A.X,"HeLa cells; pretreated up to 50 µM for 30 min, then 10 µM etoposide 1 h",could not prevent
same,effect of pretreatment on camptothecin-induced γ-H2A.X,"HeLa cells; pretreated with 10 µM for 30 min, then camptothecin 1 h",dramatically reduced
same,IC50,MRC5CV1 cells,950 nM
